The values below come from patent US20150315218A1, “SALTS OF PRODRUGS OF PIPERAZINE AND SUBSTITUTED PIPERIDINE ANTIVIRAL AGENTS” (Bristol-Myers Squibb Company, priority 2004, published 2015).

Data set [1] is described as follows: IV and PO pharmacokinetic studies of prodrug salts (Iab, Ibb, Icb) in the monkey, with historical parent data. It counts as in vivo, cynomolgus monkeys. Conditions: for half-life: after IV prodrug, read-out: t1/2 (hr), IV (converted); for clearance / Vd: prodrug after IV administration; for clearance: read-out: CLtot (mL/min/kg), IV; for Vd: read-out: Vdss (L/kg), IV. Here is the method: The IV and PO studies of Iab were conducted in a crossover fashion in three male cynomolgus monkeys (11±1.2 kg, Charles River Biomedical Research Foundation, Houston, Tex.). There was a two-week washout period between the IV and PO studies.
In the IV study, Iab was infused via the femoral vein at 1.3 mg/kg (free acid, or 1.1 mg/kg of IVa equivalent) over 5 min at a constant rate of 0.1 mL/kg/min. The concentration of the dosing solution was 2.6 mg/mL, and the dosing volume was 0.5 mL/kg. Serial blood samples were collected from the femoral artery before dosing and at 5, 10, 15, 30, 45 min, 1, 2, 4, 6, 8 and 24 hr after dosing.
In the PO study, the monkeys were fasted overnight before dosing. Iab was administered by oral gavage at 7.1 mg/kg (free acid, or 5.6 mg/kg of IVa equivalent). The concentration of the dosing solution was 14.2 mg/mL, and the dosing volume was 0.5 mL/kg. Serial blood samples were collected before dosing and at 15, 30, 45 min, 1, 2, 4, 6, 8 and 24 hr after dosing.
The IV and PO studies of Ibb were conducted in a crossover fashion in three male cynomolgus monkeys (9.9±2.4 kg, Charles River Biomedical Research Foundation, Houston, Tex.). There was a two-week washout period between the IV and PO studies.
The concentration of the dosing solution was 2.7 mg/mL, and the dosing volume was 0.5 mL/kg. Serial blood samples were collected from the femoral artery before dosing and at 5, 10, 15, 30, 45 min, 1, 2, 4, 6, 8 and 24 hr after dosing.
In the PO study, the monkeys were fasted overnight before dosing. […] The concentration of the dosing solution was 5.8 mg/mL, and the dosing volume was 1 mL/kg. Serial blood samples were collected before dosing and at 15, 30, 45 min, 1, 2, 4, 6, 8 and 24 hr after dosing.
The IV and PO studies of Icb were conducted in a crossover fashion in three male cynomolgus monkeys (10±1.6 kg, Charles River Biomedical Research Foundation, Houston, Tex.). There was a two-week washout period between the IV and PO studies.
The concentration of the dosing solution was 2.8 mg/mL, and the dosing volume was 0.5 mL/kg. Serial blood samples were collected from the femoral artery before dosing and at 5, 10, 15, 30, 45 min, 1, 2, 4, 6, 8 and 24 hr after dosing.
In the PO study, the monkeys were fasted overnight before dosing. […] The concentration of the dosing solution was 9.8 mg/mL, and the dosing volume was 0.5 mL/kg. Serial blood samples were collected before dosing and at 15, 30, 45 min, 1, 2, 4, 6, 8 and 24 hr after dosing.

Data set [2] in a line: IV and PO pharmacokinetic studies of prodrug salts (Iab, Ibb, Icb) in the dog, with historical parent data. It counts as in vivo, beagle dogs. Here is the method:
The IV and PO studies of Iab were conducted in a crossover fashion in three male beagle dogs (11±1.1 kg, Marshall Farms USA Inc., North Rose, N.Y.). There was a two-week washout period between the IV and PO studies.
In the IV study, Iab was infused via the cephalic vein at 1.2 mg/kg (free acid, or 0.95 mg/kg of IVa equivalent) over 5 min at a constant rate of 0.1 mL/kg/min. The concentration of the dosing solution was 2.4 mg/mL, and the dosing volume was 0.5 mL/kg. Serial blood samples were collected from the femoral artery before dosing and at 5, 10, 15, 30, 45 min, 1, 2, 4, 6, 8 and 24 hr after dosing.
In the PO study, the dogs were fasted overnight before dosing. Iab was administered by oral gavage at 6.6 mg/kg (free acid, or 5.2 mg/kg of IVa equivalent). The concentration of the dosing solution was 13.2 mg/mL, and the dosing volume was 0.5 mL/kg. Serial blood samples were collected before dosing and at 15, 30, 45 min, 1, 2, 4, 6, 8 and 24 hr after dosing.
The IV and PO studies of Ibb were conducted in male beagle dogs (10±0.78 kg, Marshall Farms USA Inc., North Rose, N.Y.). Three dogs were used in each study. Of the three dogs, two same dogs were used for both IV and PO studies. There was a two-week washout period between the IV and PO studies.
The concentration of the dosing solution was 2.6 mg/mL, and the dosing volume was 0.5 mL/kg. Serial blood samples were collected from the femoral artery before dosing and at 5, 10, 15, 30, 45 min, 1, 2, 4, 6, 8 and 24 hr after dosing.
In the PO study, the dogs were fasted overnight before dosing. […] The concentration of the dosing solution was 7.0 mg/mL, and the dosing volume was 1 mL/kg. Serial blood samples were collected before dosing and at 15, 30, 45 min, 1, 2, 4, 6, 8 and 24 hr after dosing.
The IV and PO studies of Icb were conducted in a crossover fashion in three male beagle dogs (12±2.8 kg, Marshall Farms USA Inc., North Rose, N.Y.). There was a two-week washout period between the IV and PO studies.
In the IV study, Icb was infused via the cephalic vein at 1.3 mg/kg (free acid, or 1.0 mg/kg of IVe equivalent) over 5 min at a constant rate of 0.1 mL/kg/min. The concentration of the dosing solution was 2.6 mg/mL, and the dosing volume was 0.5 mL/kg. Serial blood samples were collected from the femoral artery before dosing and at 5, 10, 15, 30, 45 min, 1, 2, 4, 6, 8 and 24 hr after dosing.
In the PO study, the dogs were fasted overnight before dosing. […] The concentration of the dosing solution was 12 mg/mL, and the dosing volume was 0.5 mL/kg. Serial blood samples were collected before dosing and at 15, 30, 45 min, 1, 2, 4, 6, 8 and 24 hr after dosing.

[3] abbreviates: male, cynomolgus monkey, plasma, monkey, analyte = label.
The mark [4] stands for this setting: male, cynomolgus monkey, plasma, monkey.
Setting [5] is: male, beagle, plasma, after IV prodrug, analyte = label, read-out: t1/2 (hr), IV (converted).
Setting [6] is: male, beagle, plasma, prodrug after IV administration, read-out: CLtot (mL/min/kg), IV.
Setting [7] is: male, beagle, plasma, prodrug after IV administration, read-out: Vdss (L/kg), IV.
[8] abbreviates: male, beagle, in vivo, iv, 1.28 mg/kg.

Structures can show the parent of a compound that is named as a salt.

Turning to `COc1cnc(OC)c2c1c(C(=O)C(=O)N1CCN(C(=O)c3ccccc3)CC1)cn2COP(=O)(O)O` [Iab, {3-[(4-benzoylpiperazin-1-yl)(oxo)acetyl]-4,7-dimethoxy-1H-pyrrolo[2,3-c]pyridin-1-yl}methyl dihydrogen phosphate, L-lysine salt (1:1)], the concentration at 15 min in data set [1] (male, cynomolgus monkey, plasma, po, monkey, LLQ = 5 nM, read-out: prodrug detected in plasma after oral administration) worked out at 18 nM. Besides, the AUC in data set [1] (male, cynomolgus monkey, plasma, monkey, after IV prodrug (~1.1 mg/kg parent equivalent), analyte = label, read-out: AUCtot (μM · hr), IV) came to 9.5 ± 0.38 µM·h; in data set [2] (male, beagle, plasma, after IV prodrug (~1 mg/kg parent equivalent), analyte = label, read-out: AUCtot (μM · hr), IV) it was 0.56 ± 0.12 µM·h. Further, the half-life is 1 h in data set [1] (setting [3]) and 0.15 h in data set [2] (setting [5]). For the same molecule, the clearance came to 4.4 mL/min/kg in data set [1] (setting [4]) and 70 mL/min/kg in data set [2] (setting [6]). Moreover, the Vd in data set [1] (setting [4]) was 0.048 L/kg; in data set [2] (setting [7]), 0.3 L/kg.
Turning to `O=C(C(=O)N1CCN(C(=O)c2ccccc2)CC1)c1cn(COP(=O)(O)O)c2c(-n3ccnn3)ncc(F)c12` [Ibb, [3-[(4-benzoylpiperazin-1-yl)(oxo)acetyl]-4-fluoro-7-(1H-1,2,3-triazol-1-yl)-1H-pyrrolo[2,3-c]pyridin-1-yl]methyl dihydrogen phosphate, L-lysine salt (1:1)], the results for the half-life in data set [1] (setting [3]) and in data set [2] (setting [5]) were 0.1 h and 0.83 h, respectively. Further, the clearance in data set [1] (setting [4]) turned out to be 28 mL/min/kg; in data set [2] (setting [6]) it was 27 mL/min/kg. The Vd in data set [1] (setting [4]) turned out to be 0.15 L/kg; in data set [2] (setting [7]), 0.35 L/kg. The “prodrug detected in plasma after oral administration” value in data set [1] (monkey, LLQ = 5 nM) is “not detected”; in data set [2] (LLQ = 5 nM) it was 0.034 µM. For the same molecule, the T1/2 in data set [2] (IV Ibb […] free acid (1.0 of IVb eqv.), mean ± SD, n = 3) worked out at 49.8 ± 34.8 min. For the same molecule, the AUC in data set [2] (male, beagle, plasma, po, 7 mg/kg, read-out: AUCtot) is 0.059 µM·h. In addition, in data set [2] (male, beagle, plasma, po, 7 mg/kg, read-out: Cmax), the Cmax is 34 ± 18 nM. Also, in data set [2] (male, beagle, plasma, po, 7 mg/kg, read-out: Tmax), the Tmax was 19.8 ± 8.4 min.
Take `COc1cnc(-n2cnc(C)n2)c2c1c(C(=O)C(=O)N1CCN(C(=O)c3ccccc3)CC1)cn2COP(=O)(O)O` [Icb, [3-[(4-benzoylpiperazin-1-yl)(oxo)acetyl]-4-methoxy-7-(3-methyl-1H-1,2,4-triazol-1-yl)-1H-pyrrolo[2,3-c]pyridin-1-yl]methyl dihydrogen phosphate, 2-amino-2-(hydroxymethyl)propane-1,3-diol salt (1:1)]: the T1/2 in data set [1] (male, cynomolgus monkey, in vivo, iv, […]) is 5.34 ± 1.86 min. Further, in data set [2] (setting [8]), the AUC is 0.61 ± 0.2 µM·h, the MRT came to 8.4 ± 1.26 min, the Vd amounted to 0.5 ± 0.088 L/kg and the clearance stood at 64 ± 18 mL/min/kg. Further, the half-life in data set [2] (setting [8]) is 0.25 ± 0.1 h.

The Cmax is the maximum level reached in the sampled fluid or tissue. Broadly, the Tmax is the time from dosing to the highest level. One may read the MRT as the average time that molecules of a dose stay in the body.
